From ChEMBL document CHEMBL1201862, “PubChem BioAssay data set” (2004)
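Compound exposure: 48 hours, 5 concentrations, 96-well plates. Here, GI50 denotes the concentration required for 50% inhibition of growth.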 Calls of active or inactive are those of the source. No stated cut-off is given here; in the data, active = GI50 up to about 1.1 µM and inactive = higher. Starred links: 1 amine or outer side, 2 acyl side, 3 side chain; linkers in the order of their positions; H or OH if unused. Positions of bridges follow the written chain, without caps; N, C: chain ends. Non-standard residues stand in square brackets, D forms with d. Residues, ends and D or L forms follow the SMILES beside them. Chains are numbered I, II in the order given. Actinocin(1to9) = Cc1c2oc3c(C)ccc(C(=O)[*:2])c3nc-2c(C(=O)[*:1])c(N)c1=O; NMeV = CN[CH](C(=O)O)C(C)C; Sar = CNCC(=O)O

Key:
Assay in all cases: DTP human tumour cell line panel, 48 h
[1] = tested on: RPMI-8226
[2] = tested on: OVCAR-5
[3] = tested on: SK-MEL-5
[4] = tested on: SR
[5] = tested on: COLO 205
[6] = tested on: SNB-75
[7] = tested on: MDA-MB-231
[8] = tested on: KM12
[9] = tested on: OVCAR-3
[10] = tested on: BT-549
[11] = tested on: HT-29
[12] = tested on: UACC-257
[13] = tested on: MDA-MB-435
[14] = tested on: SF-295
[15] = tested on: HCC 2998
[16] = tested on: 786-0
[17] = tested on: SF-268
[18] = tested on: HL-60
[19] = tested on: LOX IMVI
[20] = tested on: A498
[21] = tested on: A549
[22] = tested on: OVCAR-4
[23] = tested on: NCI/ADR-RES
[24] = tested on: SW-620
[25] = tested on: DU-145
[26] = tested on: Hs-578T
[27] = tested on: CAKI-1
[28] = tested on: SK-MEL-2
[29] = tested on: SF-539
[30] = tested on: K562
[31] = tested on: PC-3
[32] = tested on: HOP-92
[33] = tested on: T47D
[34] = tested on: MCF7
[35] = tested on: HCT-15
[36] = tested on: HOP-62
[37] = tested on: MOLT-4
[38] = tested on: Malme-3M
[39] = tested on: SK-MEL-28
[40] = tested on: NCI-H226
[41] = tested on: HCT-116
[42] = tested on: NCI-H522
[43] = tested on: IGROV-1
[44] = tested on: NCI-H23
[45] = tested on: NCI-H460
[46] = tested on: MDA-N
[47] = tested on: UACC-62
[48] = tested on: TK-10
[49] = tested on: UO-31
[50] = tested on: SN12C
[51] = tested on: OVCAR-8
[52] = tested on: RXF 393
[53] = tested on: CCRF-CEM
[54] = tested on: EKVX
[55] = tested on: ACHN
[56] = tested on: U-251
[57] = tested on: M14
[58] = tested on: SK-OV-3
[59] = tested on: SNB-19

Structure (SMILES): Nc1ncc(Br)c(NCC2(CO)CCC2)n1
- GI50 [1]: 42800 nM (inactive)
- GI50 [2]: 20700 nM (inactive)
- GI50 [3]: 54500 nM (inactive)
- GI50 [4]: > 100000 nM (inactive)
- GI50 [5]: > 100000 nM (inactive)
- GI50 [6]: > 100000 nM (inactive)
- GI50 [7]: > 100000 nM (inactive)
- GI50 [8]: > 100000 nM (inactive)
- GI50 [9]: > 100000 nM (inactive)
- GI50 [10]: > 100000 nM (inactive)
- GI50 [11]: > 100000 nM (inactive)
- GI50 [12]: > 100000 nM (inactive)
- GI50 [13]: > 100000 nM (inactive)
- GI50 [14]: 97100 nM (inactive)
- GI50 [15]: > 100000 nM (inactive)
- GI50 [16]: > 100000 nM (inactive)
- GI50 [17]: > 100000 nM (inactive)
- GI50 [18]: > 100000 nM (inactive)
- GI50 [19]: > 100000 nM (inactive)
- GI50 [20]: 35600 nM (inactive)
- GI50 [21]: > 100000 nM (inactive)
- GI50 [22]: > 100000 nM (inactive)
- GI50 [23]: 95500 nM (inactive)
- GI50 [24]: > 100000 nM (inactive)
- GI50 [25]: 81300 nM (inactive)
- GI50 [26]: > 100000 nM (inactive)
- GI50 [27]: 49800 nM (inactive)
- GI50 [28]: > 100000 nM (inactive)
- GI50 [29]: > 100000 nM (inactive)
- GI50 [30]: > 100000 nM (inactive)
- GI50 [31]: > 100000 nM (inactive)
- GI50 [32]: 56100 nM (inactive)
- GI50 [33]: 1690 nM (inactive)
- GI50 [34]: > 100000 nM (inactive)
- GI50 [35]: > 100000 nM
- GI50 [36]: > 100000 nM (inactive)
- GI50 [37]: 80000 nM (inactive)
- GI50 [38]: > 100000 nM (inactive)
- GI50 [39]: > 100000 nM (inactive)
- GI50 [40]: 66800 nM (inactive)
- GI50 [41]: > 100000 nM (inactive)
- GI50 [42]: 92000 nM (inactive)
- GI50 [43]: > 100000 nM (inactive)
- GI50 [44]: > 100000 nM (inactive)
- GI50 [45]: 71900 nM (inactive)
- GI50 [46]: > 100000 nM (inactive)
- GI50 [47]: > 100000 nM (inactive)
- GI50 [48]: > 100000 nM (inactive)
- GI50 [49]: 79600 nM (inactive)
- GI50 [50]: > 100000 nM (inactive)
- GI50 [51]: > 100000 nM (inactive)
- GI50 [52]: > 100000 nM (inactive)
- GI50 [53]: > 100000 nM (inactive)
- GI50 [54]: 58500 nM (inactive)
- GI50 [55]: > 100000 nM (inactive)
- GI50 [56]: > 100000 nM (inactive)

Structure (SMILES): CCC(C)C1NC(=O)C(NC(=O)c2c3nc4c(C(=O)NC5C(=O)NC(C(C)CC)C(=O)N6CCCC6C(=O)N(C)CC(=O)N(C)C(C(C)C)C(=O)OC5C)ccc(C)c4oc-3c(C)c(=O)c2N)C(C)OC(=O)C(C(C)C)N(C)C(=O)CN(C)C(=O)C2CCCN2C1=O (stereo not given) (I: TIP[Sar][NMeV] / II: TIP[Sar][NMeV]; ester I:1-I:C, II:1-II:C; linker I:N-II:N via Actinocin(1to9); configuration not given here)
- GI50 [1]: 0.143 nM (active)
- GI50 [2]: 4.59 nM (active)
- GI50 [3]: 0.198 nM (active)
- GI50 [4]: < 0.1 nM (active)
- GI50 [5]: < 0.1 nM (active)
- GI50 [6]: 3.19 nM (active)
- GI50 [7]: 5.61 nM (active)
- GI50 [8]: 1.07 nM (active)
- GI50 [9]: 1.84 nM (active)
- GI50 [10]: 10.5 nM (active)
- GI50 [11]: < 0.1 nM (active)
- GI50 [12]: < 0.1 nM (active)
- GI50 [13]: 0.539 nM (active)
- GI50 [14]: 0.477 nM (active)
- GI50 [15]: 13 nM (active)
- GI50 [16]: 0.195 nM (active)
- GI50 [17]: 3.22 nM (active)
- GI50 [18]: < 0.1 nM (active)
- GI50 [19]: < 0.1 nM (active)
- GI50 [20]: 10.2 nM (active)
- GI50 [57]: < 9.95 nM (active)
- GI50 [21]: 0.753 nM (active)
- GI50 [22]: 6.25 nM (active)
- GI50 [23]: 296 nM (active)
- GI50 [24]: 0.236 nM (active)
- GI50 [25]: 11 nM (active)
- GI50 [26]: 6.5 nM (active)
- GI50 [27]: 5.9 nM (active)
- GI50 [28]: 1.01 nM (active)
- GI50 [29]: < 0.1 nM (active)
- GI50 [30]: < 0.1 nM (active)
- GI50 [31]: 0.895 nM (active)
- GI50 [32]: 2.55 nM (active)
- GI50 [33]: 1.73 nM (active)
- GI50 [58]: 20.8 nM (active)
- GI50 [34]: < 0.1 nM (active)
- GI50 [35]: 17.2 nM
- GI50 [36]: < 0.1 nM (active)
- GI50 [37]: < 0.1 nM (active)
- GI50 [38]: 0.156 nM (active)
- GI50 [39]: 0.11 nM (active)
- GI50 [40]: 0.889 nM (active)
- GI50 [41]: < 0.1 nM (active)
- GI50 [42]: < 0.1 nM (active)
- GI50 [59]: < 0.1 nM (active)
- GI50 [43]: < 0.1 nM (active)
- GI50 [44]: 1.33 nM (active)
- GI50 [45]: < 0.1 nM (active)
- GI50 [46]: < 10 nM (active)
- GI50 [47]: 0.169 nM (active)
- GI50 [48]: 14.7 nM (active)
- GI50 [49]: 20.4 nM (active)
- GI50 [50]: 0.282 nM (active)
- GI50 [51]: 0.262 nM (active)
- GI50 [52]: 3.94 nM (active)
- GI50 [53]: < 0.1 nM (active)
- GI50 [54]: 14.5 nM (active)
- GI50 [55]: 1.62 nM (active)
- GI50 [56]: < 0.1 nM (active)
